Laboratory results: US8937050B2, “Methods and compositions for treatment of autism” (The Johns Hopkins University, priority 2011, dated 2015)

Legend:
autism = test: Placebo-controlled study of HU in male adolescents and adults with autism; format: in vivo, human; details: HU at low doses
Description: Administration of hydroxyurea (HU) in adolescents and adults with autism is evaluated in a study designed to ensure safety and obtain efficacy data. HU is chosen based on its effects on the stress proteome in vitro and based on clinical observations of improvements (e.g., social responsiveness) in persons with autism during fever. (Curran et al., 2007).
The hybrid design of the study incorporates double masking, placebo control, and randomization to enhance the robustness of early outcome data. […]
Forty-five male adolescents (13-18 years) and adults (19-30 years) are randomly assigned to receive either HU (n=30, at 2 month escalating intervals: 10, 15 and 20 mg/kg/day) or placebo (n=15). Quantitative autism traits are assessed using the ADI-R, Social Responsiveness Scale (child and adult forms), Clinical Global Impression Scale (CGI) and Autism Behavior Checklist (ABC). […]
The effect of HU in autism is evaluated to ensure safety and efficacy (Piantadosi et al., 2005). […]
Male adolescent (n=15, ages 13-18 years) and adults (n=30, ages 19-30) are randomly assigned to receive either HU (at 2 month escalating intervals: […]) or placebo. Quantitative autism traits are assessed using the ADI-R, Social Responsiveness Scale (child and adult forms) (Constantino et al., 2005), Clinical Global Impressions Scale (CGI), and Autism Behavior Checklist (ABC). […]

[1] = Zhao et al., 2005; Clarke et al., 2011; cited from earlier work
FL-SMN mRNA = test: RT-PCR of FL-SMN and total SMN mRNA in spinal muscular atrophy fibroblasts; format: cell-based, human
Description: Following the manufacturer's protocols, DNase I-treated cDNA was synthesized using Superscript III or Thermoscript reverse transcriptase (Invitrogen). PCR reactions were performed in duplicate on the Roche Lightcycler 3.5 (Basel, Switzerland) or the Bio-Rad iCycler (Hercules, Calif.) using Quantitech SYBR green PCR mix (Qiagen, Valencia, Calif.). GeNorm software calculated a normalization factor for each sample using the relative amounts of at least two of the following reference genes, β2-microglobulin, […], actin, and/or eukaryotic elongation factor 1A (Vandesompele et al., 2002). Primers for the various experiments described herein are listed below.
Type I and type III spinal muscular atrophy (SMA I or SMA III) fibroblasts were treated with SFN for the indicated times. The relative fold increase in the ratio of FL-SMN/total SMN transcripts compared with the untreated cell line (normalized to 1) is plotted. Cell lines from left to right are GM09677, GM00232 and 2906. N≧2 independent experiments.
Spinal muscular atrophy fibroblasts were treated with 1.5 mM SFN alone for 51 hr. (SMA I, GM09677) or treated with 0.5 mM SFN for 8 hr. (SMA III, 2906) with or without […] SP600125 (JNK inhibitor), 2.5 mM 3-methyladenine (autophagy inhibitor, APG), […] antimycin A (mitochondrial inhibitor, MITO) or […] sirtinol (SIRT1 inhibitor). The fold increases in FL-SMN expression compared with either GAPDH or total SMN expression and the fold increase in total SMN expression compared with GAPDH expression after SFN treatment is plotted. Untreated values were normalized to 1 and are indicated by the horizontal line. (n=1 per cell line, performed in duplicate)
To determine which stress pathways are necessary for the increase in FL-SMN production, spinal muscular atrophy fibroblasts were co-treated with SFN and either SP600125, an inhibitor of the JNK pathway (Bennett et al., 2001), 3-methyladenine, an inhibitor of the autophagy pathway (Seglen et al., 1982), antimycin A, a mitochondrial inhibitor (Ranganathan et al., 2009), or sirtinol, an inhibitor of SIRT1 activity (Grozinger et al., 2001). […] SIRT1, an NAD+-dependent deacetylase, is known to regulate cellular stress responses, cellular metabolism and cellular survival (Salminen et al., 2009). Specifically, SIRT1 inhibition reduces the induction of HSR genes (Westerheide et al., 2009); SIRT1 activity enhances SOD2 expression (Anastasiou et al., 2006); SIRT1 negatively regulates the mammalian target of rapamycin triggering autophagy (Haigis et al., 2010); and SIRT1 activates mitochondrial biogenesis via the stress-responsive transcription factor PGC1a (Yu et al., 2009). The yeast ortholog Sir2 is necessary for the induction of mitochondrial biogenesis by 4PBA or HU in Saccharomyces cerevisiae (Cha 2010). […] However, SIRT1 can be activated by various post-translational changes. Therefore, the potential involvement of SIRT1 in the therapeutic effects of these drugs by inhibition studies was evaluated.

Row | SMILES | clinical function in adolescents and adults with well characterized autism (autism) | blood brain barrier crossing [1] | relative expression of FL-SMN transcripts normalized to GAPDH or total SMN transcript levels (FL-SMN mRNA; FIG. 8B) | total SMN transcript levels normalized to GAPDH transcript levels (FL-SMN mRNA; FIG. 8B) | FL-SMN mRNA expression compared with total SMN transcription (FL-SMN mRNA; SMA type I lines GM09677, GM00232 and SMA type III line 96-2906, FIG. 8A)
1 | NC(=O)NO [HU, hydroxyurea] | improved clinical function |  |  |  | 
2 | C[S@@+]([O-])CCCCN=C=S [SFN, 1-isothiocyanato-4R-(methylsulfinyl)butane] |  | crosses the blood brain barrier | increased | remained unchanged | significantly increased
